Article PMC12368479, “Inhibition of the Clathrin Terminal Domain—Amphiphysin Protein–Protein Interaction. Probing the Pitstop 2 Aromatic Moiety” (Chemmedchem, 2025)
Like-named read-outs stand apart in the source and are kept apart here.

Legend:
[1] = biological target: T1, clathrin heavy chain NTD (amino acids 1–364) – amphiphysin 1 B/C domain protein–protein interaction (NTD‐PPI) (Homo sapiens, UniProt Q00610); design: method as in PMID 21816279, PMID 27853797; conditions: Figure 1, lead Pitstop 2 and earlier analogs; read-out: IC50 (clathrin NTD‐PPI inhibition); cited from earlier work
T1 construct: GST‐tagged clathrin heavy chain NTD (amino acids 1–364); made in house
T1 sequence (Q00610 1-364): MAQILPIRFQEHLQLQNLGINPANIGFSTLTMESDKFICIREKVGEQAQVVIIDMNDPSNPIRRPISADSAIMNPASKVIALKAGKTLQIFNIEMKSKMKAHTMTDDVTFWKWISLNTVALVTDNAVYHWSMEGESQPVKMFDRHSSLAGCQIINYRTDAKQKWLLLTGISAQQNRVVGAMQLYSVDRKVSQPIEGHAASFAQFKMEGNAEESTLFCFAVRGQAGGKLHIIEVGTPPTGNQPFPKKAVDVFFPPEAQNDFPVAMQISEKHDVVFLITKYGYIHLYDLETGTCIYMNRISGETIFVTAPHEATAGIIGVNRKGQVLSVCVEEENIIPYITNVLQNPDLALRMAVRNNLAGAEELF

[2] = biological target: T1, clathrin heavy chain NTD (amino acids 1–364) – amphiphysin 1 B/C domain protein–protein interaction (NTD‐PPI); test: ELISA-based clathrin inhibitor binding assay (NTD-PPI)
How it was run: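 Binding is given relative to DMSO control, measured colorimetrically (HRP anti-GST, TMB) after compounds and GST-tagged clathrin heavy-chain NTD (1–364) were co-incubated 1 h at room temperature on immobilised His6-amphiphysin 1 B/C domain (250–578), in HEPES pH 7.4 buffer with 50 mM NaCl.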

[3] = biological target: T2, full length human Dynamin I (Homo sapiens, UniProt Q05193); test: Dynamin GTPase activity, Malachite Green phosphate detection assay; type: biochemical
T2 construct: full length human Dynamin I expressed in Sf21 insect cells; made in house; host or cells: Sf21 insect cells
T2 sequence (Q05193 1-864): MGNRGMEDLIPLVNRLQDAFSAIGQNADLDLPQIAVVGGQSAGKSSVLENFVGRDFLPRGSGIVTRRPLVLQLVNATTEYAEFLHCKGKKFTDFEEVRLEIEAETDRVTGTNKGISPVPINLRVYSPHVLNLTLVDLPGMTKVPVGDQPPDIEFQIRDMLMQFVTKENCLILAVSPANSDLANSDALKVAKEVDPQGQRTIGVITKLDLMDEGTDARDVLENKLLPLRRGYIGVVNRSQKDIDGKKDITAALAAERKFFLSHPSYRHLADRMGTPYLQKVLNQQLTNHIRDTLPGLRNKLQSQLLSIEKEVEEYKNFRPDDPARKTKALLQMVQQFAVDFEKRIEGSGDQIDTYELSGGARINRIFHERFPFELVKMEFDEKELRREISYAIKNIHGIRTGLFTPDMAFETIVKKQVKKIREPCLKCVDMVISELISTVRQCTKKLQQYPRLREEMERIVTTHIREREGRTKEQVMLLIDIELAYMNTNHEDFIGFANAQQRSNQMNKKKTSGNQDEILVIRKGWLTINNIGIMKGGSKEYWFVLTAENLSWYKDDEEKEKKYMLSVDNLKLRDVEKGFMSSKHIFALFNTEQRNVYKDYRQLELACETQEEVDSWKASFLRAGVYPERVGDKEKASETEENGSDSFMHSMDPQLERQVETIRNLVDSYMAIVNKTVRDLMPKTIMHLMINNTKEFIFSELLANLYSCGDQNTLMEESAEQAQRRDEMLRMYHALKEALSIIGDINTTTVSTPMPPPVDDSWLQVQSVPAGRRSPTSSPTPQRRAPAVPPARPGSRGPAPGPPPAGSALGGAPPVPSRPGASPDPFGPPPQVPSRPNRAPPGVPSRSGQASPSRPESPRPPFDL
Method: Dynamin GTPase activity was determined in vitro using the Malachite Green phosphate detection absorbance‐based assay within a 96‐well plate format as described previously. The enzyme source was full length human Dynamin I expressed in Sf21 insect cells and affinity‐purified on GST‐Amph2‐SH3 (rat Amphiphysin 2 (494–588)).^[ [56] ^]

[4] = tested on: transferrin uptake (CME) in U2OS osteosarcoma cells; test: Clathrin-mediated endocytosis assay: transferrin (Tfn) uptake in U2OS cells; type: cell-based; conditions: Homo sapiens, U2OS
Method: Using our previously reported CME assay in U2OS cells, the ability of these compounds to block endocytosis was examined (Table 5 ).^[ [48], [49] ^]
CME was examined by a high‐throughput, quantitative assay for measuring transferrin (Tfn) uptake in U2OS osteosarcoma cells, based on methods described previously.^[ [48] ^]
Compounds were made up fresh from powder stock just prior to commencing the assay, and stock solutions were stored at −20 °C for several months.

[5] = Qualitative solubility in solvents (compound data sheets, Supporting Information); type: physicochemical; conditions: solvents in which the compound dissolves
[6] = Table 1, library 1, ELISA, average of duplicate measurements (n=2), read-out: NTD‐PPI IC50
[7] = Table 5, ELISA, read-out: NTD‐PPI IC50
[8] = Table 1, library 1, n = 1 unless noted (19: n = 2), '–' = not active at 150 μM, read-out: Dyn 1 IC50
[9] = Table 5, dynamin GTPase, n = 1 or n = 2 as footnoted, NA = not active at 100 μM, read-out: Dynamin 1 IC50
[10] = Table 5, inhibition of transferrin‐red uptake in U2OS cells, '–'/NA = not active at 100 μM
[11] = Table 4, library 4, ELISA, average of duplicate measurements (n = 2), read-out: NTD‐PPI IC50
[12] = Table 4, library 4, n = 1 or n = 2 as footnoted, '–' = not active at 100 μM, read-out: Dynamin 1 IC50

SMILES | IC50 [2, 6] | IC50 [2, 7] | IC50 ([2]; read-out: NTD‐PPI IC50 (ELISA)) | IC50 [3, 8] | IC50 [3, 9] | IC50 [4, 10] | IC50 [2, 11] | Solubility [5] | also measured
O=C1N=C(NS(=O)(=O)c2cccc3ccccc23)S/C1=C\c1ccc(Br)cc1 [Pitstop 2, (Z)‐N‐(5‐(4‐bromenzylidene)‐4‐oxo‐4,5‐dihydrothiazol‐2‐yl)naphthalene‐1‐sulfonamide] |  |  |  |  |  |  |  |  | IC50 [1]: 1.9 µM
O=C1N=C(NS(=O)(=O)c2cccc(Cl)c2)S/C1=C\c1ccc(Br)cc1 [compound 2] |  |  |  |  |  |  |  |  | IC50 [1]: 5.1 µM
O=C1N=C(NS(=O)(=O)c2cccc3ccccc23)S/C1=C\c1cccc(O)c1O [compound 3] |  |  |  |  |  |  |  |  | IC50 [1]: 3.5 µM
O=C1N=C(NS(=O)(=O)c2cccc3ccccc23)S/C1=C\c1cccc(C(=O)O)c1 [compound 10, (Z)‐3‐((2‐(naphthalene‐1‐sulfonamido)‐4‐oxothiazol‐5(4 H)‐ylidene)methyl)benzoic acid] | 5.3 µM |  |  | > 150 µM |  |  |  | DMSO | 
O=C1N=C(NS(=O)(=O)c2cccc3ccccc23)S/C1=C\c1ccccc1[N+](=O)[O-] [compound 15, (Z)‐N‐(5‐(2‐nitrobenzylidene)‐4‐oxo‐4,5‐dihydrothiazol‐2‐yl)naphthalene‐1‐sulfonamide] | 153 µM | 153 µM |  | 42.2 µM | ~42.4 µM | 46.3 ± 13.7 µM |  | DMSO, slightly soluble in ethyl acetate, acetone, ethanol and methanol | fold potency reduction (NTD‐PPI) ([2]; ELISA, comparator not named (lead Pitstop 2 series)): > 100 fold
O=C1N=C(NS(=O)(=O)c2cccc3ccccc23)S/C1=C\c1ccc[nH]1 [compound 47, (Z)‐N‐(5‐((1H‐pyrrol‐2‐yl)methylene)‐4‐oxo‐4,5‐dihydrothiazol‐2‐yl)naphthalene‐1‐sulfonamide] |  | 5.3 µM |  |  |  | 27.2 ± 11.7 µM | 5.3 µM | DM SO slightly soluble in acetone an d methanol | fold less active (NTD‐PPI) than furan (48) ([2]; ELISA, C2 linked analogues): 2 fold
O=C1N=C(NS(=O)(=O)c2cccc3ccccc23)S/C1=C\c1ccco1 [compound 48, (Z)‐N‐(5‐(furan‐2‐ylmethylene)‐4‐oxo‐4,5‐dihydrothiazol‐2‐yl)naphthalene‐1‐sulfonamide] |  | 3.64 µM | 3.6 µM |  |  | ~96.6 µM | 3.64 µM | DM SO, slig htly soluble in methanol | IC50 ([4]; U2OS cells): > 50 µM
O=C1N=C(NS(=O)(=O)c2cccc3ccccc23)S/C1=C\c1ccc2c(c1)CCO2 [compound 57, (Z)‐N‐(5‐((2,3‐dihydrobenzofuran‐5‐yl)methylene)‐4‐oxo‐4,5‐dihydrothiazol‐2‐yl)naphthalene‐1‐sulfonamide] |  |  | < 5 µM |  | > 100 µM | 58.1 ± 12.6 µM | 3.27 µM | DM SO, slig htly soluble in ethyl acetate, aceton e, ethanol and methanol | IC50 [3, 12]: > 100 µM; IC50 ([4]; U2OS cells): > 50 µM

Continued, in another order:

IC50 [2, 6] | IC50 [2, 7] | IC50 ([2]; read-out: NTD‐PPI IC50 (ELISA)) | IC50 [3, 8] | IC50 [3, 9] | IC50 [4, 10] | IC50 [2, 11] | SMILES | Solubility [5] | also measured
5.6 µM | 5.6 µM | 2.7 µM | > 150 µM | > 100 µM | 46.7 ± 13.1 µM |  | O=C1N=C(NS(=O)(=O)c2cccc3ccccc23)S/C1=C\c1ccc(O)cc1 [compound 6, (Z)‐N‐(5‐(4‐hydroxybenzylidene)‐4‐oxo‐4,5‐dihydrothiazol‐2‐yl)naphthalene‐1‐sulfonamide] | DMSO, slightly soluble in ethanol, acetone, methanol and ethyl acetate | 
 |  |  | > 150 µM | > 100 µM | 25 ± 14.6 µM |  | O=C1N=C(NS(=O)(=O)c2cccc3ccccc23)S/C1=C\c1cccc(O)c1 [compound 7, N‐[(5Z)‐5‐(3‐hydroxybenzylidene)‐4‐oxo‐4,5‐dihydro‐1,3‐thiazol‐2‐yl]naphthalene‐1‐sulfonamide] | DMSO, slightly soluble in acetone, ethyl acetate, methanol and ethanol | 
7.4 µM |  |  | > 150 µM |  |  |  | O=C1N=C(NS(=O)(=O)c2cccc3ccccc23)S/C1=C\c1ccc(C(=O)O)cc1 [compound 9, 4‐[(Z)‐{2‐[(naphthalen‐1‐ylsulfonyl)amino]‐4‐oxo‐1,3‐thiazol‐5(4H)‐ylidene}methyl]benzoic acid] | DMSO, slightly soluble in acetone, ethyl acetate, ethanol and methanol | 
 |  |  | > 150 µM | > 100 µM | 34.4 ± 13.7 µM |  | O=C1N=C(NS(=O)(=O)c2cccc3ccccc23)S/C1=C\c1cccc([N+](=O)[O-])c1 [compound 14, (Z)‐N‐(5‐(3‐nitrobenzylidene)‐4‐oxo‐4,5‐dihydrothiazol‐2‐yl)naphthalene‐1‐sulfonamide] | DMSO, slightly soluble in acetone, ethanol and methanol | 
 | 3.33 µM | < 5 µM |  | ~54.1 µM | > 100 µM | 3.33 µM | O=C1COc2ccc(/C=C3\SC(NS(=O)(=O)c4cccc5ccccc45)=NC3=O)cc2N1 [compound 52, (Z)‐N‐(4‐oxo‐5‐((3‐oxo‐3,4‐dihydro‐2H‐benzo[b][1,4]oxazin‐6‐yl)methylene)‐4,5‐dihydrothiazol‐2‐yl)naphthalene‐1‐sulfonamide] | DM SO, slig htly soluble in acetone, ethanol an d m ethanol | IC50 [3, 12]: ~54.1 µM; IC50 ([4]; U2OS cells): > 50 µM
